The supplement of paper PMC10307832

Legend:
Assay in all cases: relative viability (nuclei count vs DMSO), 5 days (fraction); higher = more cells survive
[1] = compound: CC1(C)CCC(CN2CCN(c3ccc(C(=O)NS(=O)(=O)c4ccc(NCC5CCOCC5)c([N+](=O)[O-])c4)c(Oc4cnc5[nH]ccc5c4)c3)CC2)=C(c2ccc(Cl)cc2)C1 [Venetoclax] + COc1cc2c(Oc3ccc(NC(=O)C4(C(=O)Nc5ccc(F)cc5)CC4)cc3F)ccnc2cc1OCCCN1CCOCC1 [Foretinib] (partner 0.25 µM)
How it was run: (§1)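 After 5 days of treatment, lung cancer cells in 1536-well plates were fixed and stained in a single step (final 0.05% Triton X-100, 1% formaldehyde, 1 ug/ml Hoechst) and their nuclei counted on 4× images. Treatment had been applied by pin tool the day after seeding as one drug alone or as a fixed anchor-drug dose with five library-drug doses (not always all listed) in √10 steps. Relative viability is the nuclei count of treated wells divided by that of vehicle wells, and values are medians of duplicate plates.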

[2] = compound: CC1(C)CCC(CN2CCN(c3ccc(C(=O)NS(=O)(=O)c4ccc(NCC5CCOCC5)c([N+](=O)[O-])c4)c(Oc4cnc5[nH]ccc5c4)c3)CC2)=C(c2ccc(Cl)cc2)C1 [Venetoclax] + C[C@@H](Oc1cc(-c2cnn(C3CCNCC3)c2)cnc1N)c1c(Cl)ccc(F)c1Cl [Crizotinib] (partner 1 µM)
How it was run: as §1

[3] = compound: CC1(C)CCC(CN2CCN(c3ccc(C(=O)NS(=O)(=O)c4ccc(NCC5CCOCC5)c([N+](=O)[O-])c4)c(Oc4cnc5[nH]ccc5c4)c3)CC2)=C(c2ccc(Cl)cc2)C1 [Venetoclax] + C[C@]1(O)C[C@@H](c2nc(-c3ccc4ccc(-c5ccccc5)nc4c3)c3c(N)nccn32)C1 [Linsitinib] (partner 1 µM)
How it was run: as §1

[4] = compound: Cn1cnc2c(F)c(Nc3ccc(Br)cc3Cl)c(C(=O)NOCCO)cc21 [Selumetinib] + CS(=O)(=O)N1CCN(Cc2cc3nc(-c4cccc5[nH]ncc45)nc(N4CCOCC4)c3s2)CC1 [Pictilisib] (partner 1 µM)
How it was run: as §1

Cell Line | relative viability ([1]; first compound 0.01 µM) | relative viability ([1]; first compound 0.03162 µM) | relative viability ([1]; first compound 0.1 µM) | relative viability ([1]; first compound 0.3162 µM) | relative viability ([1]; first compound 1 µM) | relative viability ([2]; first compound 0.01 µM) | relative viability ([2]; first compound 0.03162 µM) | relative viability ([2]; first compound 0.1 µM) | relative viability ([2]; first compound 0.3162 µM) | relative viability ([2]; first compound 1 µM) | relative viability ([3]; first compound 0.01 µM) | relative viability ([3]; first compound 0.03162 µM) | relative viability ([3]; first compound 0.1 µM) | relative viability ([3]; first compound 0.3162 µM) | relative viability ([3]; first compound 1 µM) | relative viability ([4]; first compound 0.02 µM) | relative viability ([4]; first compound 0.06325 µM) | relative viability ([4]; first compound 0.2 µM) | relative viability ([4]; first compound 0.6325 µM)
HCC-366 | 0.86 | 1.04 | 0.872 | 0.963 | 0.974 | 0.502 | 0.609 | 0.621 | 0.505 | 0.388 | 0.659 | 0.657 | 0.605 | 0.779 | 0.549 | 0.136 | 0.0735 | 0.124 | 0.115
A-427 | 0.957 | 1.2 | 0.944 | 1.24 | 1.11 | 0.584 | 1.09 | 0.873 | 0.924 | 1 | 1.06 | 1.18 | 1.1 | 1.16 | 1.19 | 0.752 | 0.583 | 0.493 | 0.421
NCI-H2347 | 1.05 | 1.39 | 0.85 | 0.883 | 0.854 | 0.74 | 0.81 | 0.726 | 0.533 | 0.677 | 0.93 | 0.953 | 1.01 | 0.958 | 0.95 | 0.641 | 0.314 | 0.239 | 0.258
NCI-H1792 |  |  |  |  |  | 0.938 | 0.946 | 0.983 | 0.98 | 0.93 | 0.469 | 0.46 | 0.467 | 0.408 | 0.591 | 0.238 | 0.197 | 0.196 | 0.144
LCLC-97TM1 | 0.913 | 1.03 | 0.918 | 0.981 | 0.782 |  | 0.306 | 0.342 | 0.301 | 0.312 |  | 0.197 | 0.158 | 0.182 | 0.198 | 0.212 | 0.161 | 0.158 | 0.125
RERF-LC-KJ | 0.793 | 0.94 | 0.871 | 0.927 | 0.784 | 0.742 | 0.872 | 1.08 | 0.879 | 0.785 | 0.792 | 0.899 | 0.904 | 0.883 | 0.85 | 0.527 | 0.476 | 0.44 | 0.504
NCI-H1993 | 0.786 | 0.859 | 0.863 | 0.783 | 0.686 | 0.854 | 0.851 | 0.906 | 0.838 | 0.774 | 0.73 | 0.651 | 0.739 | 0.775 | 0.749 | 0.945 | 0.815 | 0.866 | 0.807
NCI-H1734 | 0.88 | 0.871 | 0.794 | 0.823 | 0.878 | 0.733 | 0.833 | 0.724 | 0.73 | 0.614 | 0.894 | 0.911 | 0.803 | 0.855 | 0.865 | 0.486 | 0.363 | 0.438 | 0.438
HCC-44 |  |  |  |  |  | 0.748 | 0.852 | 0.83 | 0.778 | 0.762 | 0.613 | 0.728 | 0.67 | 0.664 | 0.609 | 0.562 | 0.525 | 0.379 | 0.337
SK-MES-1 | 0.895 | 0.988 | 0.951 | 0.991 | 0.899 | 1.01 | 1.08 | 1.05 | 1.01 | 0.843 | 0.995 | 1.09 | 1.07 | 1.06 | 0.963 | 0.324 | 0.266 | 0.196 | 0.233
EPLC-272H | 0.678 | 0.849 | 0.597 | 0.725 | 0.74 |  | 0.682 | 0.872 | 1.11 | 0.897 |  | 1.31 | 1.06 | 1.45 | 1.07 | 0.299 | 0.253 | 0.245 | 0.208
NCI-H838 | 1.05 | 1.04 | 1.06 | 1.05 | 0.961 | 0.815 | 0.854 | 0.8 | 0.88 | 0.795 | 1.11 | 1.03 | 1.01 | 1.03 | 0.938 | 0.458 | 0.314 | 0.321 | 0.339
SK-LU-1 | 0.776 | 0.853 | 0.767 | 0.816 | 0.775 | 0.814 | 0.972 | 0.763 | 0.983 | 0.849 | 1.01 | 1.25 | 0.998 | 1.04 | 1.13 | 0.618 | 0.493 | 0.459 | 0.258
NCI-H1623 | 0.897 | 0.906 | 0.893 | 0.836 | 0.858 |  |  |  |  |  |  |  |  |  |  |  |  |  | 
Calu-6 | 0.907 | 0.861 | 0.992 | 0.846 | 0.878 | 0.79 | 0.798 | 0.794 | 0.776 | 0.72 | 0.897 | 0.943 | 1.01 | 0.901 | 0.896 | 0.931 | 0.644 | 0.467 | 0.335
LCLC-103H | 0.758 | 0.782 | 0.698 | 0.767 | 0.801 | 1.05 | 1.2 | 1.04 | 0.985 | 1.05 | 1.1 | 1.24 | 1.16 | 1.13 | 0.989 | 0.551 | 0.655 | 0.545 | 0.53
CAL-12T | 1.17 | 1.14 | 1.13 | 1.18 | 1.05 | 0.65 | 0.567 | 0.595 | 0.527 | 0.555 | 0.728 | 0.931 | 0.685 | 0.776 | 0.691 | 0.415 | 0.394 | 0.408 | 0.395
SW 1573 | 0.943 | 0.974 | 0.811 | 0.781 | 0.828 | 0.81 | 0.808 | 0.752 | 0.823 | 0.732 | 0.93 | 0.766 | 0.916 | 0.835 | 0.891 | 0.366 | 0.427 | 0.342 | 0.386
